# Experimental data published in US8232274B2, “Pyridazinone derivatives useful as glucan synthase inhibitors” (Albany Molecular Research, Inc., priority 2007, dated 2012).
# Columns and labels:
# [1] = biological target: T1, glucan synthase (Saccharomyces cerevisiae, UniProt P38631); assay: β(1,3) glucan synthase assay, S. cerevisiae PM503 permeabilized cells or membrane preparation (IC50); format: biochemical
# T1 construct: glucan synthase sources (2 μL permeabilized PM503 cells, or 3 μL membrane preparations from either PM503, BWP17, or ND158); endogenous in cells; host or cells: S. cerevisiae strain PM503, permeabilized cells or 100,000 g membrane fraction
# Description: (§1) β(1,3) Glucan Synthase Assay:
# 1. Preparation of Permeabilized Saccharomyces cerevisiae Cells.
# Permeabilization of yeast cells was performed according to Crotti et al. (Analytical Biochemistry, 292, 8-16, 2001) with some modifications. A 10 ml-starter culture of the S. cerevisiae strain in YPD medium (1% yeast extract, 2% bacto-peptone, 2% dextrose) with OD600=3-4 was used to inoculate 1 liter of YPD. The culture was grown at 30° C. until […]. Cells were collected by centrifugation (5,300 g for 15 min at 4° C.) and resuspended in buffer (40 mM EDTA, 100 mM β-mercaptoethanol) at 1 g of cell pellet/3.5 ml buffer. The cell suspension was shaken for 30 min at 30° C., followed by centrifugation at 12,000 g for 10 min at 4° C. The cell pellet was washed with 5 ml 0.8 M sorbitol and resuspended in 6.8 ml of 2.9 mM citric acid, 11.3 mM dibasic sodium phosphate, 1 mM EDTA, 0.8 M sorbitol, with constant shaking at 30)C for 30 min. After centrifugation at 12,000 g for […] at 4° C., the pellet was resuspended in 31.3 ml 50 mM Tris-HCl, pH 7.0, and incubated on ice for 5 min. The mixture was then centrifuged at 12,000 g for 10 min at 4 AC, and the pellet was resuspended in 1 ml of 50 mM Tris-HCl and 33% glycerol, pH 7.5. The permeabilized cell preparation was stored at […] in aliquots.
# (§2) 2. Preparation of Membrane Fraction of Yeast Cells
# (§3) The protocol was modified from Douglas et al. (Journal of Bacteriology, 176, 5686-5696, 1994). For the preparation of S. cerevisiae and C. albicans membrane fractions, 1 liter of YPD supplemented with 0.02 mg/mL adenine and 0.08 mg/mL uracil was inoculated with 10 mL starter culture of PM503 (OD600=4) or the C. albicans strain BWP17 (OD600=12) in the same medium and grown at 30° C. until OD600 reached about 1. A. fumigatus (stain ND158) membranes were prepared by first preparing a spore suspension from agar slants by adding 6 mL of sterile saline, 0.1% Tween-20 solution to each slant, and resuspending by pipetting and scraping. The spore suspensions were used to inoculate two 200 mL flasks containing Sabouraud dextrose broth media. Cultures were incubated at 37° C., 250 rpm for ˜8 hrs. All cells, S. cerevisiae, C. albicans or A. fumigatus were harvested by centrifugation at 5,300 g at 4° C. for 40 minutes. After washing with 100 mL of breakage buffer (0.1 M KPi, pH 7.0, 1 mM EDTA, 1 mM DTT), the cell pellet was resuspended in 50 ml ice-cold breakage buffer. The mixture was transferred to a bead-beater chamber packed in ice (BioSpec Products, Bartlesville, Okla.). To each 50 mL sample was added 50 g of acid-washed glass beads ([…], Sigma). Cells were disrupted using 12×20 second pulses with 2 min-cooling intervals. Cell debris was removed by centrifugation at 3,000 g for 20 minutes at 4° C., and the supernatant was collected and centrifuged at 100,000 g for 1 hour at 4° C. to pellet the membrane fraction. The pellet was resuspended in 5 mL of ice-cold breakage buffer containing 25% glycerol, homogenized with a Dounce tissue homogenizer and stored at −80° C. in small aliquots.
# (§4) 3. Glucan Synthase Assay and Compound Screening
# The assay was performed according to Mo et at (Journal of Biological Chemistry, 269, 31267-31274, 1994) and Taft et al. (The Journal of Antibiotics, 47, 1001-1009, 1994), in a 96-well Optiplate (PerkinElmer). To each well was added 3 μL 10× compound stock (in 100% DMSO), or 3 μL of 30 μg/mL caspofungin in 100% DMSO (as positive control), or 3 μL 100% DMSO (as negative control), followed by the addition of appropriate amount of glucan synthase sources (2 μL permeabilized PM503 cells, or 3 μL membrane preparations from either PM503, BWP17, or ND158). The reaction was initiated by adding 25 μL reaction buffer (0.6 mM UDP-Glucose 0.6 nCi [U-^14C]DUP-Glucose (327 mCi/mmol, Amersham Bioscience), 20 μM GTP-γ-S, 25 mM NaF, 7.5 mg/mL BSA, 8% glycerol in 75 mM Tris-HCl, pH 7.5). […]
# [2] = biological target: T2, glucan synthase (Candida albicans, UniProt O13428); assay: β(1,3) glucan synthase assay, C. albicans BWP17 membrane preparation (IC50); format: biochemical; settings: in vitro fungal enzyme activity assay, read-out: IC50 (μg/mL) Candida albicans (converted)
# T2 construct: glucan synthase sources (2 μL permeabilized PM503 cells, or 3 μL membrane preparations from either PM503, BWP17, or ND158); endogenous in cells; host or cells: C. albicans strain BWP17, 100,000 g membrane fraction
# Description: as §1, §2, §3, §4
# The assay was performed according to Mo et at (Journal of Biological Chemistry, 269, 31267-31274, 1994) and Taft et al. (The Journal of Antibiotics, 47, 1001-1009, 1994), in a 96-well Optiplate (PerkinElmer). To each well was added 3 μL 10× compound stock (in 100% DMSO), or 3 μL of 30 μg/mL caspofungin in 100% DMSO (as positive control), or 3 μL 100% DMSO (as negative control), followed by the addition of appropriate amount of glucan synthase sources (2 μL permeabilized PM503 cells, or 3 μL membrane preparations from either PM503, BWP17, or ND158). The reaction was initiated by adding 25 μL reaction buffer (0.6 mM UDP-Glucose 0.6 nCi [U-^14C]DUP-Glucose (327 mCi/mmol, Amersham Bioscience), 20 μM GTP-γ-S, 25 mM NaF, 7.5 mg/mL BSA, 8% glycerol in 75 mM Tris-HCl, pH 7.5). The plate was incubated on a shaker for 1.5 hour at room temperature before being quenched with 250 μL 1% TCA (Trichloroacetic Acid). The quenched reaction was mixed by pipetting, and immediately transferred to a 96-well filter plate (Glass fiber B on 0.65 μm hydrophilic durapore membrane, Millipore) pre-wetted with wash buffer (5% TCA, 60 mM NaPPi). The glucan product was retained on the filter membrane by applying vacuum to the plate using a MultiScreen Resist Vacuum Manifold (Millipore). The filter plate was further washed 4 times with 200 μL wash buffer. The plate was dried at 50° C. for 30 minutes. 100 μL of Microscint-0 (PerkinElmer) was added to each well, and plate was counted in a TopCount NXT plate reader (PerkinElmer).
# Dose-response curves were plotted from inhibition data generated. IC50 was determined by fitting the CPM versus the Concentration of the test compound plot with the following equation (4-parameter logistic model, ID Business Solutions XLfit 4.2).
# T2 sequence (O13428 1-1897): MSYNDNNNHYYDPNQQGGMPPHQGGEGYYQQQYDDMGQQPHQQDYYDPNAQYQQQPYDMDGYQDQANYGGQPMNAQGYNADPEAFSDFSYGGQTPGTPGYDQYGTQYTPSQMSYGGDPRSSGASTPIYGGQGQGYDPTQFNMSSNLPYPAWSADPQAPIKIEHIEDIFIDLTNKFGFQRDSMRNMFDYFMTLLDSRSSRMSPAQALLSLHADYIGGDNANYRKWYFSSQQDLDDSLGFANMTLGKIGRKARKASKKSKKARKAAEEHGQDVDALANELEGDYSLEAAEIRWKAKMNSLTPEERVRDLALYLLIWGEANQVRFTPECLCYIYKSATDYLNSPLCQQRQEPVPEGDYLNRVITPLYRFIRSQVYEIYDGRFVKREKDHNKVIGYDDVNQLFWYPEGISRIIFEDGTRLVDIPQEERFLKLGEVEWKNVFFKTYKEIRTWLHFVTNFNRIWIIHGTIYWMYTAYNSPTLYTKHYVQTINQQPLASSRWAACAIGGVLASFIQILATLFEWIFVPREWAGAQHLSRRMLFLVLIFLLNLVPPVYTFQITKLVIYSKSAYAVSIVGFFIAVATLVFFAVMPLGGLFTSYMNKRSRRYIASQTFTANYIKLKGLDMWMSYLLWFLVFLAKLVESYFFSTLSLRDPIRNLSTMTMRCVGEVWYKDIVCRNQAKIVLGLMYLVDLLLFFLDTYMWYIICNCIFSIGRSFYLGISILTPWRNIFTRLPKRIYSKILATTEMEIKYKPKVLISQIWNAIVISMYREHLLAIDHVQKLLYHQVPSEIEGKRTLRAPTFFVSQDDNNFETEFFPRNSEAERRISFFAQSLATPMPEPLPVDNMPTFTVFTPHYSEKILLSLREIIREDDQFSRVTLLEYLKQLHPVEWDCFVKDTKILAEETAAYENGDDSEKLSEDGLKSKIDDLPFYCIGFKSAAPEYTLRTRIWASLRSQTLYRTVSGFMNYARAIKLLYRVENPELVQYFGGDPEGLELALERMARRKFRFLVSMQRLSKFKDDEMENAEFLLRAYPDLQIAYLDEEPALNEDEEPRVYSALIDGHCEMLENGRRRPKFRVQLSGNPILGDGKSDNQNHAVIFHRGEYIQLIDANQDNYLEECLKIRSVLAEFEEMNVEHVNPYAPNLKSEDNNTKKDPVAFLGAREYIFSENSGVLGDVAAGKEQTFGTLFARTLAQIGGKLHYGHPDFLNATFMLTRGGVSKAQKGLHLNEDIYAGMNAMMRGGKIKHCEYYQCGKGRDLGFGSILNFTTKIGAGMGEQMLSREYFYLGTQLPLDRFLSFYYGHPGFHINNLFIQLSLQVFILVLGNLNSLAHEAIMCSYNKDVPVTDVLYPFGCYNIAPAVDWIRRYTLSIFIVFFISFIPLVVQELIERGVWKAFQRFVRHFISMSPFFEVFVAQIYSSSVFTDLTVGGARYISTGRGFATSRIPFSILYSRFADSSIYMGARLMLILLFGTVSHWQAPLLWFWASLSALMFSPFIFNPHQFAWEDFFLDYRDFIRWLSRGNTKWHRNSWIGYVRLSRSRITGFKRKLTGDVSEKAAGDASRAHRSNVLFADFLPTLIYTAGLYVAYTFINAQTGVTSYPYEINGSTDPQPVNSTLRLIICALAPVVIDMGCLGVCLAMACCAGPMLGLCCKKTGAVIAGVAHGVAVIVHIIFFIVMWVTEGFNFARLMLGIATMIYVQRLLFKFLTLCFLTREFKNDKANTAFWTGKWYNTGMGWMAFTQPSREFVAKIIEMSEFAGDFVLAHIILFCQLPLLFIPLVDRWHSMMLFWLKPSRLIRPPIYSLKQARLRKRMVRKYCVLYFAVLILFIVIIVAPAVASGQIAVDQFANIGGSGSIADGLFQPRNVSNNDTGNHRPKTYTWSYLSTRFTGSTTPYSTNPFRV
# T2 sequence (O42825 1-195 partner limits assumed): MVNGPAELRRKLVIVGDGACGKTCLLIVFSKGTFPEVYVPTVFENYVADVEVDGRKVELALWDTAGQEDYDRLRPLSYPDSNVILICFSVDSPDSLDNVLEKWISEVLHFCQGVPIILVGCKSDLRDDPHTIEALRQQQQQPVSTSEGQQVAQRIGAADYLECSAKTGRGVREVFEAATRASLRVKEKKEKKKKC
# T1 sequence (P06780 1-206): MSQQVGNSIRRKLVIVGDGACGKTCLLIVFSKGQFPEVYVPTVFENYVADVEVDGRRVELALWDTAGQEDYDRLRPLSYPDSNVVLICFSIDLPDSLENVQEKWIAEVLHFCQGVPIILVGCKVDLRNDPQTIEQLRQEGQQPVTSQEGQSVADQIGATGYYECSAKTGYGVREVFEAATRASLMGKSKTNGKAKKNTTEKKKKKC
# T1 sequence (P38631 whole entry): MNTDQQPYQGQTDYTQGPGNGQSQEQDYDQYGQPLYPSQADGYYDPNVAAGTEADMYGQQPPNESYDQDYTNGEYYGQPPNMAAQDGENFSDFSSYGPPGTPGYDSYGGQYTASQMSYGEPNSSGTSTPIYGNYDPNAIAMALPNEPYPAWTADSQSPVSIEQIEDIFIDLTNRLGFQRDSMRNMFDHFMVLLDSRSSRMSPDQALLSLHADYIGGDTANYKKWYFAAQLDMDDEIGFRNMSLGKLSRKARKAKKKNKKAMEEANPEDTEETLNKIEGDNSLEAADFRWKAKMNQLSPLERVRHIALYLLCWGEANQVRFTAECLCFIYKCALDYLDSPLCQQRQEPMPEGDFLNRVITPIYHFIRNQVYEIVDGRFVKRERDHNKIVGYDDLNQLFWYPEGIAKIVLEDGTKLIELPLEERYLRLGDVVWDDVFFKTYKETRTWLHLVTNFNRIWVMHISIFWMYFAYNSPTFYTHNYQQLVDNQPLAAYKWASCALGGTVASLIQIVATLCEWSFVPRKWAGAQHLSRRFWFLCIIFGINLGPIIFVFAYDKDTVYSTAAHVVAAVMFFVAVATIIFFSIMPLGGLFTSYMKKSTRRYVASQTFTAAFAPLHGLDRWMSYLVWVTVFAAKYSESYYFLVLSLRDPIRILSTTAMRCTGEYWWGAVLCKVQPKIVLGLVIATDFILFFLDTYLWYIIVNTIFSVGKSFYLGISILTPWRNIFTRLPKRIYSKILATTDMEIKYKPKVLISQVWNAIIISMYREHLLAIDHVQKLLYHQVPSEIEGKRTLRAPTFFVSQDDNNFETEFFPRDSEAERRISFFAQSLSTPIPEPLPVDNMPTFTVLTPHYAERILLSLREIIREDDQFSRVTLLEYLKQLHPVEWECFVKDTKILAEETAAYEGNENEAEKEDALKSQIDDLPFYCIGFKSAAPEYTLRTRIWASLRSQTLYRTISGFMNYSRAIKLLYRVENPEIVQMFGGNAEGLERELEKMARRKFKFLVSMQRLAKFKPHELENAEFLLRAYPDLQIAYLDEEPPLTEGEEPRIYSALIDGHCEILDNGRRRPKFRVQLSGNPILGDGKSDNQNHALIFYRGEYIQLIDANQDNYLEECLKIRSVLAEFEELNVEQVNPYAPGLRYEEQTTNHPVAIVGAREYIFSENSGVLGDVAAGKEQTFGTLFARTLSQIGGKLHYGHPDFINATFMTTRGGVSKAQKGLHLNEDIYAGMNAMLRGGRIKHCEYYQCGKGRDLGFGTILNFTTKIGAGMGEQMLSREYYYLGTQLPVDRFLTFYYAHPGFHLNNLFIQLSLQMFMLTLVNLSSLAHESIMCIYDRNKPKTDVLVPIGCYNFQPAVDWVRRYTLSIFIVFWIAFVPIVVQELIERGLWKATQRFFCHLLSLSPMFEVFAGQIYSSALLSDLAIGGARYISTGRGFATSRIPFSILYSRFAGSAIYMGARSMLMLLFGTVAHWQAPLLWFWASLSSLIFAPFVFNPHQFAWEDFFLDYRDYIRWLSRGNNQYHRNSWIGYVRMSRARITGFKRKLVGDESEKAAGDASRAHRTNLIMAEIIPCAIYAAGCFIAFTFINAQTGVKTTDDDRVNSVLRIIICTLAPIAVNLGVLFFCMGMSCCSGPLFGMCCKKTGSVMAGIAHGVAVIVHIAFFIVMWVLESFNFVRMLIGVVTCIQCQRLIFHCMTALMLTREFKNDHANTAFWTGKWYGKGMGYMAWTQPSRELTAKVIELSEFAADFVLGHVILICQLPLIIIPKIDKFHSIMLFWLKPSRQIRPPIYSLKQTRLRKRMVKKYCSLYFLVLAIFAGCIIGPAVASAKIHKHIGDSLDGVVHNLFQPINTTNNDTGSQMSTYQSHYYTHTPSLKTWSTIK
SMILES,IC50 [1],IC50 [2]
CC1(COc2c(N3CCN(S(=O)(=O)Cc4ccc(Br)cc4)CC3)cnn(-c3cc(F)cc(F)c3)c2=O)CC1 [1529Z-33],16.4 nM,32.8 nM
CS(=O)(=O)N1CCN(c2cnn(-c3cccc(Cl)c3)c(=O)c2OC2CCc3ccccc3C2)CC1 (centres unmarked) [974Z],252 nM,641 nM
CC1(COc2c(N3CCN(S(=O)(=O)Cc4ccc(N)cc4)CC3)cnn(-c3cc(F)cc(F)c3)c2=O)CC1 [767Z],91.6 nM,238 nM
CC(C)S(=O)(=O)N1CCN(c2cnn(-c3cccc(F)c3)c(=O)c2OCCCCCCC(C)(C)F)CC1 [801Z],18.5 nM,55.5 nM
CC(C)(C)COc1c(N2CCN(S(=O)(=O)Cc3cccc(N)c3)CC2)cnn(-c2cccc(Cl)c2)c1=O [1529Z-151],128 nM,165 nM
CC1(COc2c(N3CCN(S(=O)(=O)Cc4cccc(Cl)c4N)CC3)cnn(-c3cc(F)cc(F)c3)c2=O)CC1 [Compound 1574Zq],69 nM,138 nM
Nc1ccc(CS(=O)(=O)N2CCN(c3cnn(-c4cccc(Cl)c4)c(=O)c3OCc3ccccc3)CC2)cc1 [1529Z-19],70.7 nM,230 nM
CC(C)NC(=O)N1CCN(c2cnn(-c3cccc(F)c3)c(=O)c2OC2Cc3ccccc3C2)CC1 [197Z],159 nM,3870 nM
O=c1c(OC2Cc3ccccc3CC2F)c(N2CCN(S(=O)(=O)CF)CC2)cnn1-c1cc(F)cc(F)c1 (centres unmarked) [1267Z],199 nM,633 nM
COCCNc1cccc(CS(=O)(=O)N2CCN(c3cnn(-c4cccc(Cl)c4)c(=O)c3OCC3(C)CC3)CC2)c1 [1951Z],99.6 nM,83 nM
